This is an account of results in publication PMC4477702 (The Biochemical journal, 2015).

The target of test [1] is T1, Arabidopsis (At) COG3236 domain of RIBR (Arabidopsis thaliana, UniProt Q9STY4).
T1 sequence (Q9STY4 405-599 limits assumed): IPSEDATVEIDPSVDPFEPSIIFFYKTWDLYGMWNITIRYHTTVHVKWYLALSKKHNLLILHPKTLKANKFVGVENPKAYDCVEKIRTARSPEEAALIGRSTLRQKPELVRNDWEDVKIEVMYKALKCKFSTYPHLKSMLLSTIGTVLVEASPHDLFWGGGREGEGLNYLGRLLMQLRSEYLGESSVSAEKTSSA
The test is described as follows: HPLC-UV product formation. The following applies: pH 8.0, 22°C, 1 h. It counts as biochemical.

The target in test [2] is T2, N. punctiforme (Np) COG3236 (Nostoc punctiforme, UniProt B2J4E5).
T2 sequence (B2J4E5 1-156): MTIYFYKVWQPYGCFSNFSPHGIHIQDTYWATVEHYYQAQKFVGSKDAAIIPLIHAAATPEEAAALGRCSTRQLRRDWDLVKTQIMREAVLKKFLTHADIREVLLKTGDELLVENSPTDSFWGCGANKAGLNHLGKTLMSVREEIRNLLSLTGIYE
The test is described as follows: HPLC-UV product formation. Format: biochemical. The following applies: pH 8.0, 22°C, 1 h.

Regarding `Nc1c(N[C@@H]2O[C@H](COP(=O)(O)O)[C@@H](O)[C@H]2O)[nH]c(=O)[nH]c1=O` (mixture of isomers) [compound 2, 5-amino-6-ribosylamino-2,4(1H,3H)-pyrimidinedione 5′-phosphate], the “HPLC-UV product formation; diacetyl derivatization” value in test [1] (2.4 mM substrate, 0.1 μg protein) was “All five COG3236 proteins gave rise to a new HPLC peak when mixed with intermediate”. In addition, the HPLC-UV product formation result in test [2] (2.4 mM substrate, 1 μg protein) was “All five COG3236 proteins gave rise to a new HPLC peak when mixed with intermediate”.

Turning to `Nc1nc(N[C@@H]2O[C@H](COP(=O)(O)O)[C@@H](O)[C@H]2O)c(N)c(=O)[nH]1` (mixture of isomers) [compound 1, 2,5-diamino-6-ribosylamino-4(3H)-pyrimidinone 5′-phosphate], the “HPLC-UV product formation; diacetyl derivatization” value in test [1] (3 mM substrate, 30 μg protein) is “All five COG3236 proteins gave rise to a new HPLC peak when mixed with intermediate”. For the same compound, the HPLC-UV product formation entry in test [2] (3 mM substrate, 30 μg protein) was “All five COG3236 proteins gave rise to a new HPLC peak when mixed with intermediate”.
